Reference: publication PMC12434667 (Journal of Medicinal Chemistry, 2025)
pIC50: −log10 of the molar value. Where “and” joins values, the source holds several entries; their conditions need not be identical. Equal entries are not always repeated.

Experiments:
HCC1569 tumor xenograft = HCC1569 tumor xenograft efficacy; type: in vivo, mouse; details: 28 days; for day 28 %dTV (mean ± SEM): HCC1569 xenograft mice
[1] = Plasma PK in HCC1569 xenograft model; type: in vivo; details: mouse HCC1569 xenograft; for AUC0–24h free: mouse PPB 98.02%
Plasma protein binding = type: in vitro ADME; details: mouse
pRB = assay: Tumor AlphaLISA; type: in vivo, mouse; details: HCC1569 xenograft, sustained
Dog PK = type: in vivo
CDK4 = CDK4 (Homo sapiens, UniProt P11802); assay: 24-hr western blot of CDK4 degradation in TOV21G cells; type: cell-based; details: read-out: TOV21G CDK4 DC50
Sequence of CDK4 (P11802 whole entry): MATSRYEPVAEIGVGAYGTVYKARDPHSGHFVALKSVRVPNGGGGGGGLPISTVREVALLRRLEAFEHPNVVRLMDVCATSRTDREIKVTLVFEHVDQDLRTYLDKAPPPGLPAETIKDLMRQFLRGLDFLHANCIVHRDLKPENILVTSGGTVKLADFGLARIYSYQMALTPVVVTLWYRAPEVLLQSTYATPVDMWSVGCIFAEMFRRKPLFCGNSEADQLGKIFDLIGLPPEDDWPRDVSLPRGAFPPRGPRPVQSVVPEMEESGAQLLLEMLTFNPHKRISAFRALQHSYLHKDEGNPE

human PBMC cells = assay: Tandem mass tag deep proteome profiling; type: cell-based; details: 800 nM, 8 h, over 8000 proteins
pRB S807/811 = assay: 24-hr AlphaLISA of pRB inhibition in MKN1 cells; type: cell-based; details: Homo sapiens, MKN-1, 24 h
Monkey PK = type: in vivo
CDK1 = CDK1 (Homo sapiens, UniProt P06493); assay: 24-hr AlphaLISA of CDK1 degradation in TOV21G cells; type: cell-based; details: vs CDK2 degradation
Sequence of CDK1 (P06493 whole entry): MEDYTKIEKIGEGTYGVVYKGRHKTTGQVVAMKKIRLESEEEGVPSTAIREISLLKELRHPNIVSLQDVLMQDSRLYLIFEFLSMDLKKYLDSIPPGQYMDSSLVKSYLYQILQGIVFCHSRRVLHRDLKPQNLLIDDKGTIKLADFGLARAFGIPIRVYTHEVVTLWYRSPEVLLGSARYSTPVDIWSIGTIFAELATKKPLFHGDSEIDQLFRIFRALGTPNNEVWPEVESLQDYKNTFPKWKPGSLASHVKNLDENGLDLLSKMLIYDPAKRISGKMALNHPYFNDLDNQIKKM

CDK9 = CDK9 (Homo sapiens, UniProt P50750); assay: 24-hr AlphaLISA of CDK9 degradation in TOV21G cells; type: cell-based
Sequence of CDK9 (P50750 whole entry): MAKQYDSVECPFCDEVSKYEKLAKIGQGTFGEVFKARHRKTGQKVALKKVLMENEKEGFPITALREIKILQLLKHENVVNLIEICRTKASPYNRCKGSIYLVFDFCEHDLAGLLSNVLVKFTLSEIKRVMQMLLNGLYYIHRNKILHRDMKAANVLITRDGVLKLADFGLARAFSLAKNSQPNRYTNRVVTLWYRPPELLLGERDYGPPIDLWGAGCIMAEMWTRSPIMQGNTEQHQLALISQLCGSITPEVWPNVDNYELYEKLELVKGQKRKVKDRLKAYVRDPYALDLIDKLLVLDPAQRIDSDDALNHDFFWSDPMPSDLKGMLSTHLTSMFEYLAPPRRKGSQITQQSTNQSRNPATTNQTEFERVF

Rat PK = type: in vivo; details: plasma, po, 10 mg/kg
CDK6 = CDK6 (Homo sapiens, UniProt Q00534); assay: 24-hr western blot of CDK6 degradation in TOV21G cells; type: cell-based; details: read-out: TOV21G CDK6 DC50
Sequence of CDK6 (Q00534 whole entry): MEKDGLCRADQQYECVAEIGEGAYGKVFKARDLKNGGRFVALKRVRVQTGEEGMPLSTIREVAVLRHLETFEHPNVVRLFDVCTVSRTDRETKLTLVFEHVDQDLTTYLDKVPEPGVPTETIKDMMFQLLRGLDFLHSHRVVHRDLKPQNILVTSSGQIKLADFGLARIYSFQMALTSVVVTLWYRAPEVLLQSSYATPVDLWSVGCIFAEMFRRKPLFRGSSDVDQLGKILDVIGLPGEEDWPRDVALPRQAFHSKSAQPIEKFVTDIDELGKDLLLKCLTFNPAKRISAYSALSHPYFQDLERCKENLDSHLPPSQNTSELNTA

What does the source list for C[C@]1(O)CCCN(c2nc(Nc3ccc(S(=O)(=O)N[C@@H]4CCN(CC5CCN(c6ccc(C7CCC(=O)NC7=O)cc6F)CC5)C[C@@H]4F)cc3F)ncc2C(F)(F)F)C1 (stereo partly drawn) [Compound 37, N-[(3S,4R)-1-[[1-[4-(2,6-Dioxo-3-piperidyl)-2-fluoro-phenyl]-4-piperidyl]methyl]-3-fluoro-4-piperidyl]-3-fluoro-4-[[4-[(3S)-3-hydroxy-3-methyl-1-piperidyl]-5-(trifluoromethyl)pyrimidin-2-yl]amino]benzenesulfonamide]?
antitumor activity (HCC1569 tumor xenograft; 25 mg/kg PO BID): stable disease (30 to −30% is stable disease (0% = Tumor Stasis)); day 28 %dTV (mean ± SEM) (HCC1569 tumor xenograft; 25 mg/kg PO BID): –26 ± 9%; antitumor activity (HCC1569 tumor xenograft; 50 mg/kg PO BID): stable disease (30 to −30% is stable disease (0% = Tumor Stasis)); day 28 %dTV (mean ± SEM) (HCC1569 tumor xenograft; 50 mg/kg PO BID): –24 ± 10%; antitumor activity (HCC1569 tumor xenograft; 50 mg/kg PO QD): stable disease (30 to −30% is stable disease (0% = Tumor Stasis)); AUC0–24h/D ([1]; PO 10 mg/kg BID × 3 days): 624 mg·h/mL; AUC0–24h/D ([1]; PO 25 mg/kg BID × 3 days): 709 mg·h/mL; AUC0–24h free ([1]; PO 25 mg/kg BID × 3 days): 14.2 ng·h/mL; AUC0–24h/D ([1]; PO 50 mg/kg BID × 3 days): 949 mg·h/mL; AUC0–24h free ([1]; PO 50 mg/kg BID × 3 days): 19.0 ng·h/mL; AUC0–24h/D ([1]; PO 50 mg/kg QD × 3 days): 1377 mg·h/mL; AUC0–24h free ([1]; PO 50 mg/kg QD × 3 days): 27.5 ng·h/mL; fraction unbound at 30 min, 1 µM (Plasma protein binding): 0.0198; inhibition of pRB in tumor (pRB): 90% and > 90%; dog F (Dog PK; IV 0.1 / PO 1 mg/kg, 1 mg/kg): 12%; Vd (Dog PK; plasma, iv, 0.1 mg/kg): 4.2 L/kg; clearance (Dog PK; plasma, iv, 0.1 mg/kg): 3.9 mL/min/kg; half-life (Dog PK; plasma, iv, 0.1 mg/kg): 14.4 h; AUC(0-t) (Dog PK; plasma, po, 1 mg/kg): 0.557 µM·h; Cmax (Dog PK; plasma, po, 1 mg/kg): 26 nM; DC50 (CDK4): > 10000 nM; significantly downregulated proteins (human PBMC cells): CDK2 as the only significantly downregulated protein; pIC50 (pRB S807/811; read-out: MKN1 pRB IC50): 7.64; IC90 (pRB S807/811; read-out: MKN1 pRB IC90): 110 nM; monkey F (Monkey PK; IV 0.07 / PO 1 mg/kg, 1 mg/kg): 12%; Vd (Monkey PK; plasma, iv, 0.07 mg/kg): 5.7 L/kg; clearance (Monkey PK; plasma, iv, 0.07 mg/kg): 9.1 mL/min/kg; half-life (Monkey PK; plasma, iv, 0.07 mg/kg): 8.6 h; AUC(0-t) (Monkey PK; plasma, po, 1 mg/kg): 0.25 µM·h; Cmax (Monkey PK; plasma, po, 1 mg/kg): 14 nM; degradation selectivity over CDK1 (CDK1): > 100 fold; DC50 (CDK9; read-out: TOV21G CDK9 DC50, 24 h): > 10000 nM; degradation selectivity over CDK9 (CDK9; vs CDK2 degradation): > 500 fold; AUC(0-t) (Rat PK): 3.63 µM·h; Cmax (Rat PK): 261 nM; DC50 (CDK6): 1280 nM
